Test results: patent US7803350B2, “Radioactive arsenic-containing compounds and their uses in the treatment of tumors” (Institute of Nuclear Energy Research Rocaec, priority 2003, dated 2010)
Where “and” joins values, the source holds several entries; their conditions need not be identical. Equal entries are not always repeated.

How the values were obtained:
[1] = Biodistribution test of radioactive arsenic trioxide in rats with liver tumors (gamma counter); format: in vivo
Experimental: Hepatic Artery Injection:
The hepatic artery was dissected from the hepatic tissue of the rats by surgery. A PE-10 tube was introduced into the hepatic artery, and the test solution containing neutron-irradiated arsenic trioxide as prepared in Example 1 was injected into the hepatic artery. The PE-10 tube was removed after injection, and a surgical thread was used to bind and fix the blood vessels, followed by suturing of the wound.
The test injection solution containing neutron-irradiated arsenic trioxide as prepared in Example 1 was injected into the tail vein using a syringe with needle no. 25.
(§1) A fixed amount of radioactive arsenic trioxide (radioactivity range: 2.77˜3.25 mCi/ml, concentration: 1 mg/ml, animal injection dose: 0.45 mg/kg) prepared in Example 1 was injected into the rats with liver tumors through the hepatic artery and tail vein, respectively.
(§2) The rats were sacrificed by taking a large amount of blood from the heart at hours 2, 4, 16, 24 and 48, respectively, after injection, and the blood, hearts, lungs, livers, spleens, kidneys, intestines, bladders, muscles, and tumors were removed. These tissues or organs were placed in respective tubes, and their irradiation intensity was measured by a gamma counter (Wallac 1470 WIZARD). The content percentage of arsenic trioxide per each gram of the tissue or organ was calculated using standard curve regression. There were two or three experimented rats in each experimental group.
Some of the organs and tissues (blood, kidneys and livers) were transferred to the Institute of Nuclear Energy Research for conducting Inductively Coupled Plasma Mass Spectrometry (ICP-MAS) so as to observe the biodistribution of arsenic trioxide in the tumors and organs or tissues.

[2] = Radiation absorption dose in organs or tissues and tumors (MIRD method, MIRDOSE 3); format: in vivo, rats; details: for Radiation absorption dose, Lung: rats with liver tumors
Experimental: as §1, §2
Radioactive arsenic trioxide was injected respectively into the tail vein and hepatic artery of the rats by I.V. and I.H. The dosage was calculated using MIRD method, and the residence time in each of the organs and the tumors was calculated using Excel software. Finally, the radiation absorption dose in each of the organs or tissues and the tumors was calculated using MIROSE 3 software.

[3] = tested on: N1-S1 rat hepatoma liver tumors; assay: Therapeutic effect assessment, hepatic artery single injection, rats with liver tumors; format: in vivo; details: for Therapeutic effect on the tumors: hepatic artery single injection
Source text: (§3) The tumor cells for the establishment of the animal model with liver tumor were of a rat hepatoma cell line, N1-S-1, purchased from the American Type Culture Collection (ATCC, P.O. Box 1549, Manassas, Va. 20108 USA), and were subcultured to set up a Master Cell Bank and a Working Cell Bank.
(§4) The rat hepatoma cells, N1-S1, were suspended cells that were dispersed in Iscove's Modified Dulbecco's Medium (IMDM) (GibcoBRL®) supplemented with 1% penicillin (GibcoBRL®) and 10% fetal bovine serum (GibcoBRL®), and were cultured in an incubator with 5% CO2, at 37° C.
(§5) When cultured to 1.5×10^6 cell/ml, 4×10^6 cell/0.06 ml of N1-S1 cells were sampled and then implanted into Spawn-Dawley male rats (5-week-old, 150 g) between the liver and liver capsule by surgery, and the wounds were closed by sutures. Rearing of the rats was continued for ten days, and ultrasonic scanning was used to detect any growth of liver tumor and tumor size. After scanning, animals that had developed liver tumors were used to conduct the experiments of tumor growth inhibition, and euthanasia was practiced on the rest of the rats.
The blood vessels of the hepatic artery were dissected from the hepatic tissue of the rats by surgery, and normal saline, an injection solution containing arsenic trioxide without neutron irradiation treatment (concentration: 1 mg/ml; and animal injection dosage: 0.45 mg/kg), and the injection solution prepared in Example 1 which contained radioactive arsenic trioxide having subjected to neutron irradiation treatment (radioactivity range: 2.77˜3.25 mCi/ml; concentration: 1 mg/ml; and animal injection dosage: 0.45 mg/kg dose), were injected respectively via the hepatic artery in single injections.
(§6) Before injection, the size of the liver tumors was examined by ultrasonic scanning. Ultrasonic scanning was conducted in the first week, the second week, and the fifth week, respectively, after start of the injection to observe the change in size of the tumor. Finally, the rats were sacrificed for observing whether there was metastasis.

[4] = tested on: N1-S1 rat hepatoma liver tumors; assay: Therapeutic effect assessment, liver tumor direct injection, rats with liver tumors; format: in vivo; details: for Response / Survival time: individual rats, liver tumor direct injection 0.45 mg/kg once every week, twice in total; for Change of tumor size 4 weeks after injection: liver tumor direct injection
Source text: as §3, §4, §5
The rats with liver tumors were subjected to surgery. After the locations of the liver tumors were found, the tumors were directly injected with normal saline, an injection containing arsenic trioxide without neutron irradiation treatment (concentration: 1 mg/ml; animal injection dosage: 0.45 mg/kg), and the injection prepared in Example 1 which contained radioactive arsenic trioxide having subjected to neutron irradiation treatment (radiation activity range: 2.77˜3.25 mCi/ml; concentration: 1 mg/ml of concentration; and animal injection dosage: 0.45 mg/kg), respectively, once every week, twice in total.
as §6

[5] = tested on: N1-S1 rat hepatoma liver tumors; assay: Therapeutic effect assessment, continuous tail vein injection, rats with liver tumors; format: in vivo; design: key to Response: Increase in size of tumor (In %) is classified as “Poor Response”; decrease in size of tumor within 0%-40% is classified as “Mild Response”; decrease in size of tumor to 50% or more or disappearance of tumor is classified as “Good Response.”; details: for Effect on the inhibition of tumor growth / Survival of the group in week 8: continuous tail vein injection; for Response / Survival time: individual rats, continuous tail vein injection 0.45 mg/kg for two weeks
Source text: as §3, §4, §5
The rats with liver tumors were given normal saline, an injection solution containing arsenic trioxide without neutron irradiation treatment (concentration: 1 mg/ml; animal injection dosage: 0.45 mg/kg), and the injection solution prepared in Example 1 which contained radioactive arsenic trioxide having subjected to neutron irradiation treatment (radioactivity range: 2.77˜3.25 mCi/ml; concentration: 1 mg/ml; and animal injection dosage: 0.45 mg/kg), respectively, via tail vein injection, and the injection was continued for two weeks.
Before injection, the size of the liver tumors was examined by ultrasonic scanning. Ultrasonic scanning was conducted in the first week, the second week, and the fifth week, respectively, after start of the injection so as to observe the change in size of the tumor. Finally, the rats were sacrificed for observing whether there was metastasis.

[6] = tested on: acute promyelocytic leukemia cell lines; details: cited from earlier work
[7] = tested on: acute promyelocytic leukemia; details: cited from earlier work
[8] = individual rats, hepatic artery single injection 0.45 mg/kg
[9] = individual rats, hepatic artery single injection 0.45 mg/kg, 0.45 mg/kg

O=[76As]O[76As]=O (stereo not shown) [Radioactive arsenic trioxide, radioactive arsenic trioxide]
Contents of radioactive arsenic trioxide in the heart, the lung, and the spleen ([1]; 0.45 mg/kg, hepatic artery and tail vein injection, hours 2-48 (FIG. 3)): 1˜3 % ID/g | Residual contents in all the organs or tissues ([1]; 48 hours after injection, IV and IH (FIG. 3)): dropped | Time of peak content of radioactive arsenic trioxide in the liver tumor ([1]; hepatic artery injection, 0.45 mg/kg (FIG. 2)): between hours 2 and 4 | Time after which contents in the liver tumors by the two routes reached identical equivalent values ([1]; hepatic artery vs tail vein injection (FIG. 2)): 16 h | Contents in the bladder and urine relative to other tested organs ([1]; hour 4 after injection via hepatic artery and tail vein): second only to that in the tumor | Radiation absorption dose, Intestine ([2]; IH (hepatic artery injection)): 0.23 mGy/MBq | Radiation absorption dose, Kidney ([2]; IH (hepatic artery injection)): 0.28 mGy/MBq | Radiation absorption dose, Liver ([2]; IH (hepatic artery injection)): 0.21 mGy/MBq | Radiation absorption dose, Muscle ([2]; IH (hepatic artery injection)): 0.12 mGy/MBq | Radiation absorption dose, Spleen ([2]; IH (hepatic artery injection)): 0.95 mGy/MBq | Radiation absorption dose, Tumor ([2]; IH (hepatic artery injection)): 21 mGy/MBq | Radiation absorption dose, Lung ([2]; IH (hepatic artery injection)): 0.56 mGy/MBq | Radiation absorption dose, Intestine ([2]; IV (tail vein injection)): 0.16 mGy/MBq | Radiation absorption dose, Kidney ([2]; IV (tail vein injection)): 0.25 mGy/MBq | Radiation absorption dose, Liver ([2]; IV (tail vein injection)): 0.13 mGy/MBq | Radiation absorption dose, Muscle ([2]; IV (tail vein injection)): 0.06 mGy/MBq | Radiation absorption dose, Spleen ([2]; IV (tail vein injection)): 0.76 mGy/MBq | Radiation absorption dose, Tumor ([2]; IV (tail vein injection)): 4.26 mGy/MBq | Radiation absorption dose, Lung ([2]; IV (tail vein injection)): 0.47 mGy/MBq | Therapeutic effect on the tumors [3]: complete disappearance of the tumors in some of the animals 2 weeks after injection | Response [3, 8]: Good (decrease in size of tumor to 50% or more or disappearance of tumor is classified as “Good Response.”) | Survival time [3, 8]: >42 days | Tumor Size After injection Week 2 [3, 9]: Disappeared | Tumor Size After injection Week 5 [3, 9]: Disappeared | Response [4]: Good (decrease in size of tumor to 50% or more or disappearance of tumor is classified as “Good Response.”) | Survival time [4]: >30 days | Change of tumor size 4 weeks after injection [4]: the tumors in all of the animals shrank in 4 weeks of injection | Effect on the inhibition of tumor growth [5]: most noticeable | Survival of the group in week 8 [5]: all alive in week 8 | Response [5]: Good (decrease in size of tumor to 50% or more or disappearance of tumor is classified as “Good Response.”) | Survival time [5]: >56 days

arsenic trioxide [reference compound]
Therapeutic effect on the tumors [3]: not satisfactory | Response [3, 9]: Mild (decrease in size of tumor within 0%-40% is classified as “Mild Response”) (2×) and Poor (2×) | Survival time [3, 9]: >42 day (2×) and 36 day and 39 day | Survival time [4]: >30 days | Response ([4]; 0.45 mg/kg): Mild (decrease in size of tumor within 0%-40% is classified as “Mild Response”) and Poor and Good (decrease in size of tumor to 50% or more or disappearance of tumor is classified as “Good Response.”) | Change of tumor size 4 weeks after injection [4]: slightly smaller than the size of the tumors 1 week after injection, while the tumors in some of the animals still grew | Concentrations inducing cell differentiation ([6]; low concentrations): 0.1 to 0.5 µmol/L | Concentrations triggering apoptosis ([6]; relatively high concentrations): 0.5 to 2 µmol/L | Side effects (gastrointestinal disturbance, facial edema and cardiac toxicity) ([7]; low-dose, 0.08 mg/kg daily for 28 days intravenously): reduced | complete remission rate ([7]; patients with relapsed acute promyelocytic leukemia, intravenously 0.08 mg/kg daily for 28 days): 80% | complete remission (CR) rate ([7]; patients with relapsed acute promyelocytic leukemia, intravenously 10 mg/d): 90% | Effect on the inhibition of tumor growth [5]: not significant | Survival of the group in week 8 [5]: still alive in week 8 | Response ([5]; 0.45 mg/kg): Poor (3×) and Mild (decrease in size of tumor within 0%-40% is classified as “Mild Response”) (2×) | Survival time ([5]; 0.45 mg/kg): 14 day (2×) and 42 day and 7 day and 40 day
